From US5547962A, “5-amino-8-methyl-7-pyrrolidinylquinoline-3-carboxylic acid derivative” (priority 1993, dated 1996) come the findings set out here.

Data set [1] deals with CHL cells. The data set is described as follows: Chromosomal aberration test with a Chinese hamster lung cell line (CHL). Type of data set: cell-based. The conditions noted are these: for Chromosomal aberration: CHL cells, 100 μg/ml. As to the method: The chromosomal aberration test was conducted with a Chinese hamster lung cell line (CHL). 2-(2-Furyl)-3-(5-nitro-2-furyl)acrylamide was used as a positive control. Cells treated with the test compounds were cultured for 6 h at 37° C. in 5% CO2 -humidified air. Following the 6 h treatment the cells were washed. Fresh medium was added to the washed cells and they were cultured for a further 18 h. Colcemide was added to the cultures 2 h before the fixation of chromosome preparation, in order to collect metaphase cells.

The test system of data set [2] is Male Hartley guinea pigs. Type of data set: in vivo. The conditions noted are these: 10 mg/kg i.v.; for phototoxicity, in words: UVA. As for the experimental part:
Male Hartley guinea pigs were intravenously administered test compounds at a dose of 10 mg/kg, and immediately exposed to UVA on their backs for 90 minutes.

With `N[C@H]1CCN(c2cc3c(cc2F)c(=O)c(C(=O)O)cn3C2CC2)C1` [Reference Compound D, 7-((S)-3-amino-1-pyrrolidinyl)-1-cyclopropyl-6-fluoro-1,4-dihydro-4-oxoquinoline-3-carboxylic acid], the Chromosomal aberration result in data set [1] (Table 1) and in data set [1] (Table 2) was “- (<10%)” throughout.
In the case of `Nc1c(F)c(N2CC[C@H](N)C2)cc2c1c(=O)c(C(=O)O)cn2C1CC1` [Reference Compound E, 5-amino-7-((S)-3-amino-1-pyrrolidinyl)-1-cyclopropyl-6-fluoro-1,4-dihydro-4-oxoquinoline-3-carboxylic acid], in data set [2], the “phototoxicity, in words” value is on record as “no phototoxicity”. The “death of guinea pigs” value in data set [2] (phototoxicity test) is listed as “death of two guinea pigs out of five”. Also, in data set [1], the “toxicity (chromosomal aberration), in words” value is “observed”.
Take `Cc1c(N2CC[C@H](N)C2)c(F)cc2c(=O)c(C(=O)O)cn(C3CC3)c12` [Reference Compound F, 7-((S)-3-amino-1-pyrrolidinyl)-1-cyclopropyl-6-fluoro-1,4-dihydro-8-methyl-4-oxoquinoline-3-carboxylic acid]: the “phototoxicity, in words” value in data set [2] is “observed”. The “Phototoxicity: number of animals with erythemas/number of animals tested” value in data set [2] (UVA 90 minutes, 24 h after irradiation) was 4/5. The “toxicity (chromosomal aberration), in words” value in data set [1] was “observed”.
